Measurements taken from patent US20220152064A1, “BENZOAZEPINE COMPOUND-CONTAINING PHARMACEUTICAL COMPOSITION” (OTSUKA PHARMACEUTICAL CO., LTD., priority 2019, published 2022).

Experiment: Side effects on the skin or subcutaneous tissue in test of intravenous administration of compound A composition to healthy subjects
Assay type: in vivo, human
Settings: for Erythema (number of subjects) / Hyperhidrosis (number of subjects) / Number of subjects who showed at least one symptom / Pruritus (number of subjects): N=6 healthy adult males, within 24 hours after initiation of administration
Experimental: Water for injection (5 mL) was added to each of the obtained 0 mg formulation and 25 mg formulation to dissolve the freeze-dried compositions (freeze-dried cakes), thus obtaining aqueous solutions for injection. When the 25 mg formulation was dissolved in 5 mL of water for injection, 5.21 mL of the aqueous solution composition (25 mg formulation (aqueous solution for injection)) shown in Table 1 comprising 5 mg/mL of the active ingredient (compound A) was reconstituted. Further, according to the compositions shown in Table 3 below, administration solutions were prepared by mixing the 25 mg formulation (aqueous solution for injection), the 0 mg formulation (aqueous solution for injection), and a physiological saline (physiological saline solution).
Each of the obtained administration solutions was intravenously administered with a syringe pump over the administration times shown in Table 3. The number of subjects to which each solution was administered was 6 healthy adult males (aged 20 to 40 years old) (N=6).
The number of subjects who developed, within 24 hours after the initiation of administration, side effects that could appear on the skin or subcutaneous tissue (erythema, hyperhidrosis, or pruritus) was recorded.

[1] = administration solution 1, 15 mg compound A i.v. over 2 hours
[2] = administration solution 2, 7.5 mg compound A i.v. over 2 hours
[3] = administration solution 3, 15 mg compound A i.v. over 5 minutes
[4] = administration solution 4, 7.5 mg compound A i.v. over 5 minutes
[5] = administration solution 5, 15 mg compound A i.v. over 1 minute
[6] = administration solution 6, 7.5 mg compound A i.v. over 1 minute

## Cc1ccccc1C(=O)Nc1ccc(C(=O)N2CCCC(OP(=O)([O-])[O-])c3cc(Cl)ccc32)c(C)c1.[Na+].[Na+] (centres unmarked) [compound A]
7.5 mg or 15 mg of compound A intravenously administered over a period of 1 minute or 5 minutes (administration solutions 3 to 6)
  erythema, hyperhidrosis, or pruritus: frequently observed
7.5 mg or 15 mg of compound A slowly administered over a period of 2 hours (administration solutions 1 and 2)
  side effects that could appear on the skin or subcutaneous tissue, such as erythema, hyperhidrosis, or pruritus: no side effects
[1]
  Erythema (number of subjects): 0 human
  Hyperhidrosis (number of subjects): 0 human
  Number of subjects who showed at least one symptom: 0 human
  Pruritus (number of subjects): 0 human
[2]
  Erythema (number of subjects): 0 human
  Hyperhidrosis (number of subjects): 0 human
  Number of subjects who showed at least one symptom: 0 human
  Pruritus (number of subjects): 0 human
[3]
  Erythema (number of subjects): 4 human
  Hyperhidrosis (number of subjects): 2 human
  Number of subjects who showed at least one symptom: 5 human
  Pruritus (number of subjects): 4 human
[4]
  Erythema (number of subjects): 3 human
  Hyperhidrosis (number of subjects): 2 human
  Number of subjects who showed at least one symptom: 4 human
  Pruritus (number of subjects): 3 human
[5]
  Erythema (number of subjects): 5 human
  Hyperhidrosis (number of subjects): 2 human
  Number of subjects who showed at least one symptom: 5 human
  Pruritus (number of subjects): 4 human
[6]
  Erythema (number of subjects): 5 human
  Hyperhidrosis (number of subjects): 0 human
  Number of subjects who showed at least one symptom: 5 human
  Pruritus (number of subjects): 4 human
